{"source": "patent US9663764B2", "about": "“Generation of cardiomyocytes from human pluripotent stem cells” (Wisconsin Alumni Research Foundation, priority 2011, dated 2017)", "format_in_all_cases": "cell-based, human", "key": {"H9 hESCs": {"system": "H9 hESCs", "test": "Cardiac differentiation via EBs after CH pretreatment, contracting outgrowths", "conditions": "0-8 μM CH for three days prior to EB formation; spontaneously-contracting outgrowths", "protocol": "Cardiac Differentiation Via EBs: hPS cells were passaged onto MEFs (˜13,000 cells/cm^2) and cultured in hESC medium for 2 days followed by another 3 days in hESC medium supplemented with BIO (Sigma) or CHIR99021 (Selleck). To form EBs, hPS cell aggregates generated by […] were cultured in low-attachment plates overnight in RPMI plus 20% KnockOut serum replacer. The next day, the EBs were cultured in EB20 (RPMI plus 20% FBS) for 4 days in suspension. EBs were then plated onto 0.1% gelatin-coated 6-well culture plates at 50-100 EBs/well, and cultured in EB20 medium. After 10 days of differentiation, the FBS concentration was reduced to 2% EB2 (RPMI plus 2% FBS). The number of contracting EBs was visually assessed using a microscope with a 37° C. heated stage. […] Undifferentiated H9 hESCs were cultured in the presence of 0-8 μM CH for three days prior to EB formation. EBs were cultured in suspension for 4 days before transferring to 0.1% gelatin coated plates. […] The inventors also applied the GSK3 inhibitors CH and BIO to undifferentiated H9 hESCs three days prior to directed differentiation to cardiomyocytes via Activin A and BMP4."}, "H9-7TGP cells": {"system": "H9-7TGP cells", "test": "Immunofluorescent analysis of CH-induced H9-7TGP GFP+ cells", "conditions": "12 μM CHIR99021 in mTeSR1 for 4 days", "protocol": "Immunostaining: Cells were fixed with 4% paraformaldehyde for 15 min at room temperature and then stained with primary and secondary antibodies in PBS plus 0.4% Triton X-100 and 5% non-fat dry milk (Bio-Rad). Nuclei were stained with Gold Anti-fade Reagent with DAPI (Invitrogen). An epifluorescence microscope (Leica DM IRB) with a QImaging® Retiga 4000R camera was used for imaging analysis. In order to probe the activation of canonical Wnt/β-catenin signaling during hPS cell specification to cardiomyocytes, the inventors generated a series of promoter-reporter cell lines in H1 and H9 hESC, and 19-9-11 human iPSC lines. These reporter lines, integrated with a lentiviral 7TGP vector, express GFP under control of a consensus TCF/LEF binding sequence promoter which reports β-catenin activation (FIG. 2A) (Fuerer and Nusse, PLoS One 5:e9370 (2010)). […] Approximately 50% of H9-7TGP cells expressed GFP at 4 days post-addition of 15 μM CH."}, "[1]": {"system": "19-9-11 shcat-2 and scramble lines", "test": "Nanog/Isl1 immunostaining of CH-treated 19-9-11 shcat-2 and scramble lines", "protocol": "Immunostaining: Cells were fixed with 4% paraformaldehyde for 15 min at room temperature and then stained with primary and secondary antibodies in PBS plus 0.4% Triton X-100 and 5% non-fat dry milk (Bio-Rad). Nuclei were stained with Gold Anti-fade Reagent with DAPI (Invitrogen). An epifluorescence microscope (Leica DM IRB) with a QImaging® Retiga 4000R camera was used for imaging analysis. To test whether induction of cardiomyocyte differentiation by GSK3 inhibitors requires β-catenin, the inventors treated the shcat-2 and scramble 19-9-11 lines with CH in mTeSR1 medium. While the shcat-2 line maintained an undifferentiated morphology, the scramble line appeared to undergo differentiation (FIG. 2E), similar to non-transduced lines treated with CH (FIGS. 1B and 2B). Induction of differentiation following CH treatment in the scramble control was further indicated by diminished SOX2 and NANOG expression at day 4 (FIG. 3C). […] After 4 days of CH treatment in mTeSR1, the percentage of cells expressing Oct4 decreased to 61% in the scramble line, while 98% of the shcat-2 cells expressed Oct4 (FIG. 3D). […] To better understand early mesoderm induction via GSK3 inhibition, the inventors analyzed expression of the early mesoderm gene T in scramble and shcat-2 19-9-11 lines. As CH concentration increased, the ratio of T expression in scramble to the shcat-2 line increased (FIG. 3E). […]"}, "[2]": {"system": "19-9-11 ishcat-1 and ishcat-2 cells", "test": "Growth factor free cardiac differentiation by CH followed by dox-induced β-catenin shRNA, cTnT flow cytometry", "protocol": "cardiac directed differentiation via small molecules: Cells were dissociated and plated as described in the Activin/BMP4 protocol. When hPS cells maintained on Matrigel® or Synthemax plates achieved confluence, cells were treated with CH in RPMI/B27-insulin for 24 hr (day 0 to day 1). The medium was changed to RPMI/B27-insulin, followed by 2 μg/ml dox treatment at different times between day 1 and day 5 for transgenic cell lines. For genetically unmodified lines, 5 μM IWP2 (Tocris) or IWP4 (Stemgent) was added at day 3 and removed during the day 5 medium change. Cells were maintained in the RPMI/B27 starting from day 7, with the medium changed every 3 days. Flow Cytometry: Cells were dissociated into single cells and then fixed with 1% paraformaldehyde for 20 min at room temperature and stained with primary and secondary antibodies in PBS plus 0.1% Triton X-100 and 0.5% BSA. For the cell proliferation assay, a 17-hour pulse of BrdU was performed to identify dividing cardiomyocytes (Zhang et al., Circ. Res. 104, e30-41 (2009)). Data were collected on a FACSCaliber flow cytometer (Beckton Dickinson) and analyzed using FlowJo. Our results and prior studies (Ren et al., J. Mol. Cell. Cardiol. 51:280-287 (2011); Tran et al., Stem Cells 27:1869-1878 (2009); Wang et al., A.C.S. Chem. Biol. 6, 192-197 (2011); […] et al., Circ Res. 109:360-364 (2011)) indicate that induction of canonical Wnt signaling early and suppression of canonical Wnt signaling at later stages of differentiation enhance yield of cardiomyocytes. The inventors next sought to determine whether modulating Gsk3 and canonical Wnt signaling alone was sufficient to induce cardiogenesis. Undifferentiated hPS cells were cultured in RPMI/B27-insulin medium containing CH. CH was removed by medium exchange at day 1 and dox was added to the medium at various time points between […] and day 4. At day 5, the medium was replaced with RPMI/B27-insulin (FIG. 6A) and cardiomyocyte differentiation was assessed at day 15 by the percentage and yield of cTNT and/or MF20 expressing cells. In the 19-9-11 […]-1 line, 12 μM CH produced the most cTNT+ cells at day 15 without additional dox-induced β-catenin knockdown (FIG. 7A). The inventors then investigated the effect of the timing of dox treatment following addition of 12 μM CH. Addition of dox 36 hours following initiation of differentiation generated 95% cTNT+ cells with yields of approximately 15 cTNT+ cells per input iPSC (FIGS. 6B and 7B). A high yield of cTNT+ cells was also obtained using 19-9-11 […]-2 and three additional hPS cell lines (IMR90C4, 6-9-9, and H9) transduced with inducible β-catenin shRNA […]-1 (FIG. 7C)."}, "[3]": {"conditions": "12 μM CH, dox added 36 hours following initiation of differentiation, day 15"}}, "data": [{"compound": "Cc1c[nH]c(-c2cnc(NCCNc3ccc(C#N)cn3)nc2-c2ccc(Cl)cc2Cl)n1", "note": "[CH]", "values": [{"measurement": "CH concentration at which efficiency of cardiomyocyte differentiation peaked", "setting": "H9 hESCs", "value": "2 to 4", "unit": "µM"}, {"measurement": "Oct4, Isl1 and Nkx2.5 expression in CH-induced GFP+ cells", "setting": "H9-7TGP cells", "value": "did not express Oct4, but did express Isl1 and Nkx2.5"}, {"measurement": "Nanog/Isl1 immunostaining", "setting": "[1]; scramble cell line, 15 μM CH in mTeSR1 for 4 days", "value": "substantial numbers of Nanog−/Isl1+ cells"}, {"measurement": "Nanog/Isl1 immunostaining", "setting": "[1]; shcat-2 cells treated with CH", "value": "only Nanog+/Isl1− cells"}, {"measurement": "purity of cardiomyocytes", "setting": "[2]; 12 μM CH followed by dox treatment at 36 hours, >50 independent experiments", "value": "> 90", "unit": "%"}, {"measurement": "cTNT+ cells", "setting": "[2]; [3]", "value": 95, "unit": "%"}, {"measurement": "yield of cTNT+ cells", "setting": "[2]; [3]", "value": "approximately 15 cTNT+ cells per input iPSC"}, {"measurement": "CH concentration that produced the most cTNT+ cells at day 15", "setting": "[2]; 19-9-11 ishcat-1 line, without dox-induced β-catenin knockdown", "value": 12, "unit": "µM"}]}]}
